Data reported in US20250255888A1, “Use of Baby Aspirin with Diphenhydramine or other Sleep Aids” (priority 2024, published 2025).
Structures can show the parent of a compound that is named as a salt.

Test: Self-reported use as a sleep aid at night: sleep and morning aftereffects (applicant and two friends)
Format: in vivo
Details: patent applicant, taken for sleep, morning after; worse with less than seven hours of sleep
Source text: They further recommended same to two of their close friends who had complained of same aftereffects of Benadryl.
When aspirin was used with other sleep aids that contain diphenhydramine as an active ingredient, similar result was obtained.

CN(C)CCOC(c1ccccc1)c1ccccc1 [Benadryl, diphenhydramine HCL]
aftereffects in the morning (poor sleep quality, lingering drowsiness, difficulty concentrating): would experience some of the aftereffects of Benadryl such as poor sleep quality, lingering drowsiness or difficulty concentrating
